{
  "source": "patent US6620848B2",
  "about": "“Nitric oxide synthase inhibitors” (SmithKline Beecham Corporation, priority 1997, dated 2003)",
  "key": {"iNOS": {"target": "T1, iNOS (Rattus norvegicus, UniProt Q06518)", "T1 construct": "endothelium-denuded rings were exposed to LPS; from tissue; host or cells: rat thoracic aorta rings, endothelium-denuded, LPS-exposed", "test": "Inhibition of iNOS in situ in rat aortic rings (induced smooth muscle tone, LPS-exposed endothelium-denuded rings)", "format": "cell-based", "conditions": "for IC50: endothelium-denuded, LPS 6 h, phenylephrine approx. ED90", "protocol": "(§1) 1. Inhibition of eNOS and iNOS in Rat Aortic Rings\n(§2) The inhibition of eNOS and iNOS in situ in rat aortic rings was assessed by measuring the increases in ring tension caused by NO synthase inhibition. For studies of basal tone (reflecting eNOS), rings of thoracic aorta with intact endothelium were prepared as described previously (Rees et al. (1989) Br. J. Pharmol. 96, 418-424) and cumulative concentration curves obtained for the inhibitors in the presence of a threshold concentration of phenylephrine (ED10≈10 nM). For studies of induced smooth muscle tone (reflecting iNOS), endothelium-denuded rings were exposed to LPS (0.1 μ/ml from S. typhosa) in the presence of phenylephrine at approximately ED90 for 6 h as described previously (Rees et al. (1990) Biochem. Biophys. Res. Commun. 173, 541-547). During this time a progressive loss of tone occurred because of iNOS induction. Cumulative concentration curves were then obtained for the inhibitors."}, "eNOS": {"target": "T2, eNOS (Rattus norvegicus, UniProt Q62600)", "T2 construct": "from tissue; host or cells: rat thoracic aorta rings with intact endothelium", "test": "Inhibition of eNOS in situ in rat aortic rings (basal tone, intact endothelium)", "format": "cell-based", "conditions": "rat aortic rings with intact endothelium, threshold phenylephrine", "protocol": "as §1, §2"}},
  "data": [
    {"smiles": "CC(=N)NCCSCCC(N)C(=O)O", "note": "(racemic) [Example 2, (R/S)-[2-(1-iminoethylamino)ethyl]-D,L-homocysteine]", "values": [
      {"measurement": "selectivity iNOS vs eNOS", "setting": "iNOS", "result": ">500", "unit": "fold"},
      {"measurement": "IC50", "setting": "iNOS", "result": 0.45, "unit": "µM"},
      {"measurement": "eNOS % inhib @ 300 μM", "setting": "eNOS", "result": 53, "unit": "%"}
    ]},
    {"smiles": "CC(=N)NCCSCC[C@@H](N)C(=O)O", "note": "[Example 3, (R)-[2-(1-iminoethylamino)ethyl]-D-homocysteine]", "values": [
      {"measurement": "selectivity iNOS vs eNOS", "setting": "iNOS", "result": ">150", "unit": "fold"},
      {"measurement": "IC50", "setting": "iNOS", "result": 6.6, "unit": "µM"},
      {"measurement": "eNOS % inhib @ 300 μM", "setting": "eNOS", "result": 20, "unit": "%"}
    ]}
  ]
}
